Measured values as given in ChEMBL document CHEMBL1212743, “Absorption, pharmacokinetics, and safety of triclosan after dermal administration” (Antimicrob Agents Chemother, 2010).

Tests used:
Type in all cases: ADME, organism-based
Homo sapiens = experiment: Time to reach maximum urine excretion rate in percutaneously dosed healthy human at 1166 mg; settings: in vivo, topical_or_ocular
[1] = Absorption in percutaneously dosed healthy human at 1166 mg; settings: in vivo, topical or ocular, read-out: Activity
[2] = Excretion in percutaneously dosed healthy human urine at 1166 mg up to 48 hrs; settings: topical or ocular, read-out: Activity
[3] = Apparent half-life of the terminal disposition phase half life in percutaneously dosed healthy human at 1166 mg; settings: in vivo, topical or ocular, read-out: t1/2 lambda z (converted)

Oc1cc(Cl)ccc1Oc1ccc(Cl)cc1Cl [TRICLOSAN]
Time (Homo sapiens): 11 h | Fa [1]: 5.9% | dose excreted at 48 h [2]: 4.9% | half-life [3]: 10.8 h
